Legend:
barnyard grass [1] = assay: Test Example 3: herbicidal effect by foliage application, Wagner pot (Table 18, symbol H); assay type: in vivo, barnyard grass (Echinochloa crus-galli); conditions: 320 g/ha
Procedure, shortened: (§1)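 Plants were sown in alluvial soil held under 0.1–0.5 cm standing water and grown 14 days in a greenhouse at 25–30 °C. An emulsifiable formulation, water-diluted to the set dose, was then sprayed onto the foliage, and effects were scored three weeks later using previously defined criteria.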

Chinese sprangletop = assay: Test Example 3: herbicidal effect by foliage application, Wagner pot (Table 18, symbol D); assay type: in vivo, chinese sprangletop (Leptochloa chinensis); conditions: 320 g/ha
Procedure, shortened: as §1

rice flat sedge = assay: Test Example 3: herbicidal effect by foliage application, Wagner pot (Table 18, symbol E); assay type: in vivo, rice flat sedge (Cyperus iria); conditions: 320 g/ha
Procedure, shortened: as §1

southern crabgrass [2] = assay: Test Example 4: herbicidal effect by soil treatment (Table 19, symbol F); assay type: in vivo, southern crabgrass (Digitaria ciliaris); conditions: for F: southern crabgrass, herbicidal effect rating: AAH 320 g/ha
Procedure, shortened: (§2)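 Scoring uses the grading scale of an earlier test, three weeks post-application. Treatment consists of spraying a diluted emulsion formulation across the surface of sterilized diluvial soil in which seeds are buried near 1.5 cm deep; boxes are kept in a greenhouse between 25° C. and 30° C.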

green foxtail [3] = assay: Test Example 4: herbicidal effect by soil treatment (Table 19, symbol G); assay type: in vivo, green foxtail (Setaria viridis); conditions: for G: green foxtail, herbicidal effect rating: AAH 320 g/ha
Procedure, shortened: as §2

barnyard grass [4] = assay: Test Example 4: herbicidal effect by soil treatment (Table 19, symbol H); assay type: in vivo, barnyard grass (Echinochloa crus-galli); conditions: for H: barnyard grass, herbicidal effect rating: AAH 320 g/ha
Procedure, shortened: as §2

wild oat [5] = assay: Test Example 4: herbicidal effect by soil treatment (Table 19, symbol I); assay type: in vivo, wild oat (Avena fatua); conditions: for I: wild oat, herbicidal effect rating: AAH 320 g/ha
Procedure, shortened: as §2

blackgrass [6] = assay: Test Example 4: herbicidal effect by soil treatment (Table 19, symbol J); assay type: in vivo, blackgrass (Alopecurus myosuroides); conditions: for J: blackgrass, herbicidal effect rating: AAH 320 g/ha
Procedure, shortened: as §2

Italian ryegrass [7] = assay: Test Example 4: herbicidal effect by soil treatment (Table 19, symbol K); assay type: in vivo, Italian ryegrass (Lolium multiflorum); conditions: for K: Italian ryegrass, herbicidal effect rating: AAH 320 g/ha
Procedure, shortened: as §2

windgrass [8] = assay: Test Example 4: herbicidal effect by soil treatment (Table 19, symbol L); assay type: in vivo, windgrass (Apera spica-venti); conditions: for L: windgrass, herbicidal effect rating: AAH 320 g/ha
Procedure, shortened: as §2

velvetleaf [9] = assay: Test Example 4: herbicidal effect by soil treatment (Table 19, symbol M); assay type: in vivo, velvetleaf (Abutilon theophrasti); conditions: for M: velvetleaf, herbicidal effect rating: AAH 320 g/ha
Procedure, shortened: as §2

redroot pigweed = assay: Test Example 4: herbicidal effect by soil treatment (Table 19, symbol N); assay type: in vivo, redroot pigweed (Amaranthus retroflexus); conditions: for N: redroot pigweed, herbicidal effect rating: AAH 320 g/ha
Procedure, shortened: as §2

lambsquarters [10] = assay: Test Example 4: herbicidal effect by soil treatment (Table 19, symbol O); assay type: in vivo, lambsquarters (Chenopodium album); conditions: for O: lambsquarters, herbicidal effect rating: AAH 320 g/ha
Procedure, shortened: as §2

chickweed = assay: Test Example 4: herbicidal effect by soil treatment (Table 19, symbol P); assay type: in vivo, common chickweed (Stellaria media); conditions: for P: chickweed, herbicidal effect rating: AAH 320 g/ha
Procedure, shortened: as §2

persian speedwell [11] = assay: Test Example 4: herbicidal effect by soil treatment (Table 19, symbol R); assay type: in vivo, Persian speedwell (Veronica persica); conditions: for R: persian speedwell, herbicidal effect rating: AAH 320 g/ha
Procedure, shortened: as §2

southern crabgrass [12] = assay: Test Example 5: herbicidal effect by foliage application, plastic box (Table 20, symbol F); assay type: in vivo, southern crabgrass (Digitaria ciliaris); conditions: foliage application, 320 g/ha, 3 weeks after application
Procedure, shortened: (§3)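 Post-emergence foliar test in sterilized diluvial soil. Compound applied as water-diluted emulsion at a predetermined rate to 14-day-old plants; evaluation at three weeks.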

green foxtail [13] = assay: Test Example 5: herbicidal effect by foliage application, plastic box (Table 20, symbol G); assay type: in vivo, green foxtail (Setaria viridis); conditions: foliage application, 320 g/ha, 3 weeks after application
Procedure, shortened: as §3

barnyard grass [14] = assay: Test Example 5: herbicidal effect by foliage application, plastic box (Table 20, symbol H); assay type: in vivo, barnyard grass (Echinochloa crus-galli); conditions: foliage application, 320 g/ha, 3 weeks after application
Procedure, shortened: as §3

wild oat [15] = assay: Test Example 5: herbicidal effect by foliage application, plastic box (Table 20, symbol I); assay type: in vivo, wild oat (Avena fatua); conditions: foliage application, 320 g/ha, 3 weeks after application
Procedure, shortened: as §3

blackgrass [16] = assay: Test Example 5: herbicidal effect by foliage application, plastic box (Table 20, symbol J); assay type: in vivo, blackgrass (Alopecurus myosuroides); conditions: foliage application, 320 g/ha, 3 weeks after application
Procedure, shortened: as §3

Italian ryegrass [17] = assay: Test Example 5: herbicidal effect by foliage application, plastic box (Table 20, symbol K); assay type: in vivo, Italian ryegrass (Lolium multiflorum); conditions: foliage application, 320 g/ha, 3 weeks after application
Procedure, shortened: as §3

windgrass [18] = assay: Test Example 5: herbicidal effect by foliage application, plastic box (Table 20, symbol L); assay type: in vivo, windgrass (Apera spica-venti); conditions: foliage application, 320 g/ha, 3 weeks after application
Procedure, shortened: as §3

velvetleaf [19] = assay: Test Example 5: herbicidal effect by foliage application, plastic box (Table 20, symbol M); assay type: in vivo, velvetleaf (Abutilon theophrasti); conditions: foliage application, 320 g/ha, 3 weeks after application
Procedure, shortened: as §3

lambsquarters [20] = assay: Test Example 5: herbicidal effect by foliage application, plastic box (Table 20, symbol O); assay type: in vivo, lambsquarters (Chenopodium album); conditions: foliage application, 320 g/ha, 3 weeks after application
Procedure, shortened: as §3

persian speedwell [21] = assay: Test Example 5: herbicidal effect by foliage application, plastic box (Table 20, symbol R); assay type: in vivo, Persian speedwell (Veronica persica); conditions: foliage application, 320 g/ha, 3 weeks after application
Procedure, shortened: as §3

SMILES | herbicidal effect on H (barnyard grass), rating 0-5 (barnyard grass [1]) | herbicidal effect on D (Chinese sprangletop), rating 0-5 (Chinese sprangletop) | herbicidal effect on E (rice flat sedge), rating 0-5 (rice flat sedge) | F: southern crabgrass, herbicidal effect rating (southern crabgrass [2]) | G: green foxtail, herbicidal effect rating (green foxtail [3]) | H: barnyard grass, herbicidal effect rating (barnyard grass [4]) | I: wild oat, herbicidal effect rating (wild oat [5]) | J: blackgrass, herbicidal effect rating (blackgrass [6]) | K: Italian ryegrass, herbicidal effect rating (Italian ryegrass [7]) | L: windgrass, herbicidal effect rating (windgrass [8]) | effect on southern crabgrass (F) (southern crabgrass [12]) | effect on green foxtail (G) (green foxtail [13]) | effect on barnyard grass (H) (barnyard grass [14]) | effect on wild oat (I) (wild oat [15]) | effect on blackgrass (J) (blackgrass [16]) | effect on Italian ryegrass (K) (Italian ryegrass [17]) | effect on windgrass (L) (windgrass [18]) | effect on velvetleaf (M) (velvetleaf [19]) | effect on lambsquarters (O) (lambsquarters [20]) | effect on persian speedwell (R) (persian speedwell [21]) | other results
CCCC(=O)Oc1c(OC)nn(C)c(=O)c1-c1c(-c2cc3ccccc3s2)sc2ccccc12 [1-197] | 4 (Herbicidal rate of 70% or more and less than 90%) | 2 (Herbicidal rate of 20% or more and less than 40%) | 4 (Herbicidal rate of 70% or more and less than 90%) | 0 (Herbicidal rate of 5% or less (almost no effect)) | 0 (Herbicidal rate of 5% or less (almost no effect)) | 0 (Herbicidal rate of 5% or less (almost no effect)) | 0 (Herbicidal rate of 5% or less (almost no effect)) | 0 (Herbicidal rate of 5% or less (almost no effect)) | 0 (Herbicidal rate of 5% or less (almost no effect)) | 0 (Herbicidal rate of 5% or less (almost no effect)) | 0 (Herbicidal rate of 5% or less (almost no effect)) | 1 (Herbicidal rate of 5% or more and less than 20%) | 0 (Herbicidal rate of 5% or less (almost no effect)) | 0 (Herbicidal rate of 5% or less (almost no effect)) | 0 (Herbicidal rate of 5% or less (almost no effect)) | 0 (Herbicidal rate of 5% or less (almost no effect)) | 0 (Herbicidal rate of 5% or less (almost no effect)) | 3 (Herbicidal rate of 40% or more and less than 70%) | 1 (Herbicidal rate of 5% or more and less than 20%) | 5 (Herbicidal rate of 90% or more (almost completely withered)) | M: velvetleaf, herbicidal effect rating (velvetleaf [9]): 0 (Herbicidal rate of 5% or less (almost no effect)); N: redroot pigweed, herbicidal effect rating (redroot pigweed): 0 (Herbicidal rate of 5% or less (almost no effect)); O: lambsquarters, herbicidal effect rating (lambsquarters [10]): 0 (Herbicidal rate of 5% or less (almost no effect)); P: chickweed, herbicidal effect rating (chickweed): 5 (Herbicidal rate of 90% or more (almost completely withered)); R: persian speedwell, herbicidal effect rating (persian speedwell [11]): 5 (Herbicidal rate of 90% or more (almost completely withered))
Cc1nn(C)c(=O)c(-c2c(-c3ccc(O)cc3)sc3ccccc23)c1O [1-200] | 4 (Herbicidal rate of 70% or more and less than 90%) | 3 (Herbicidal rate of 40% or more and less than 70%) | 3 (Herbicidal rate of 40% or more and less than 70%) | 0 (Herbicidal rate of 5% or less (almost no effect)) | 0 (Herbicidal rate of 5% or less (almost no effect)) | 0 (Herbicidal rate of 5% or less (almost no effect)) | 0 (Herbicidal rate of 5% or less (almost no effect)) | 0 (Herbicidal rate of 5% or less (almost no effect)) | 0 (Herbicidal rate of 5% or less (almost no effect)) | 0 (Herbicidal rate of 5% or less (almost no effect)) | 3 (Herbicidal rate of 40% or more and less than 70%) | 3 (Herbicidal rate of 40% or more and less than 70%) | 4 (Herbicidal rate of 70% or more and less than 90%) | 0 (Herbicidal rate of 5% or less (almost no effect)) | 0 (Herbicidal rate of 5% or less (almost no effect)) | 1 (Herbicidal rate of 5% or more and less than 20%) | 0 (Herbicidal rate of 5% or less (almost no effect)) | 5 (Herbicidal rate of 90% or more (almost completely withered)) | 4 (Herbicidal rate of 70% or more and less than 90%) | 5 (Herbicidal rate of 90% or more (almost completely withered)) | M: velvetleaf, herbicidal effect rating (velvetleaf [9]): 0 (Herbicidal rate of 5% or less (almost no effect)); N: redroot pigweed, herbicidal effect rating (redroot pigweed): 0 (Herbicidal rate of 5% or less (almost no effect)); O: lambsquarters, herbicidal effect rating (lambsquarters [10]): 0 (Herbicidal rate of 5% or less (almost no effect)); P: chickweed, herbicidal effect rating (chickweed): 1 (Herbicidal rate of 5% or more and less than 20%); R: persian speedwell, herbicidal effect rating (persian speedwell [11]): 3 (Herbicidal rate of 40% or more and less than 70%)
Cc1nn(C)c(=O)c(-c2c(-c3ccc(F)cc3)sc3ccc(F)cc23)c1OS(=O)(=O)N(C)C [2-009] | 5 (Herbicidal rate of 90% or more (almost completely withered)) | 3 (Herbicidal rate of 40% or more and less than 70%) | 4 (Herbicidal rate of 70% or more and less than 90%) |  |  |  |  |  |  |  | 5 (Herbicidal rate of 90% or more (almost completely withered)) | 5 (Herbicidal rate of 90% or more (almost completely withered)) | 4 (Herbicidal rate of 70% or more and less than 90%) | 0 (Herbicidal rate of 5% or less (almost no effect)) | 0 (Herbicidal rate of 5% or less (almost no effect)) | 4 (Herbicidal rate of 70% or more and less than 90%) | 0 (Herbicidal rate of 5% or less (almost no effect)) | 4 (Herbicidal rate of 70% or more and less than 90%) | 3 (Herbicidal rate of 40% or more and less than 70%) | 5 (Herbicidal rate of 90% or more (almost completely withered)) | herbicidal effect rating, F: southern crabgrass (southern crabgrass [2]; 320 g/ha): 1 (Herbicidal rate of 5% or more and less than 20%); herbicidal effect rating, G: green foxtail (green foxtail [3]; 320 g/ha): 3 (Herbicidal rate of 40% or more and less than 70%); herbicidal effect rating, H: barnyard grass (barnyard grass [4]; 320 g/ha): 0 (Herbicidal rate of 5% or less (almost no effect)); herbicidal effect rating, I: wild oat (wild oat [5]; 320 g/ha): 0 (Herbicidal rate of 5% or less (almost no effect)); herbicidal effect rating, J: blackgrass (blackgrass [6]; 320 g/ha): 0 (Herbicidal rate of 5% or less (almost no effect)); herbicidal effect rating, K: Italian ryegrass (Italian ryegrass [7]; 320 g/ha): 4 (Herbicidal rate of 70% or more and less than 90%); herbicidal effect rating, L: windgrass (windgrass [8]; 320 g/ha): 0 (Herbicidal rate of 5% or less (almost no effect)); herbicidal effect rating, M: velvetleaf (velvetleaf [9]; 320 g/ha): 2 (Herbicidal rate of 20% or more and less than 40%); herbicidal effect rating, N: redroot pigweed (redroot pigweed; 320 g/ha): 5 (Herbicidal rate of 90% or more (almost completely withered)); herbicidal effect rating, O: lambsquarters (lambsquarters [10]; 320 g/ha): 3 (Herbicidal rate of 40% or more and less than 70%); herbicidal effect rating, P: chickweed (chickweed; 320 g/ha): 4 (Herbicidal rate of 70% or more and less than 90%); herbicidal effect rating, R: persian speedwell (persian speedwell [11]; 320 g/ha): 3 (Herbicidal rate of 40% or more and less than 70%)
